Consider eight compounds from US20040121946A9, “Inducing cellular immune responses to her2/neu using peptide and nucleic acid compositions” (priority 2002, published 2004).

The term IC50 denotes the concentration at which inhibition is half-maximal. Read a high IC50 as weaker potency.

One experiment addresses HLA-A*3301 (Homo sapiens, UniProt P04439, A270S/D185E/E176V/E277Q/E87N/F33T/G231S/H175R/I121M/I218V/I322F/K168Q/K210R/L300P/L318F/M331R/P217A/Q86R/Q94H/R138Q/T323A/T345S/T97I/V358M/Y195H). It counts as binding. As to conditions: Table XXIII, HLA-A3 supermotif-bearing peptides.
Experiment [1] deals with A3-supertype alleles (A*0301, A*1101, A*3101, A*3301, A*6801). Put plainly: A3-supertype cross-reactive binding. Set-up: species or system human. As to conditions: of five A3-supertype alleles tested.
The next experiment deals with HLA-A*0301 (Homo sapiens, UniProt P04439). The class given is binding. As to conditions: Table XXIII, HLA-A3 supermotif-bearing peptides.
The next experiment has as its target HLA-A*1101 (Homo sapiens, UniProt P04439, A114D/D185E/E176A/F33Y/L180Q/S129P/T187R). It counts as binding. As to conditions: Table XXIII, HLA-A3 supermotif-bearing peptides.
The target of a further experiment is HLA-A*3101 (Homo sapiens, UniProt P04439, A270S/D185E/E176V/E277Q/F33T/G231S/G80R/H175R/I121M/I218V/I322F/K168Q/L300P/L318F/M331R/P217A/Q94H/R138Q/T323A/T345S/T97I/V358M). It counts as binding. As to conditions: Table XXIII, HLA-A3 supermotif-bearing peptides.
For a further experiment, the target named is HLA-A*6801 (Homo sapiens, UniProt P04439, A269V/D185E/E176V/E277Q/E87N/F33Y/G231S/I121M/I166T/I218V/L180W/L300P/L318F/N151K/P208A/P217A/Q86R/R169H/T345S). It counts as binding. As to conditions: Table XXIII, HLA-A3 supermotif-bearing peptides.

Where a SMILES comes first, the peptide text is derived from it. Where no end group is shown, it is not given here. [ ]: non-standard residue; d: D form. Abu = CC[C@H](N)C(=O)O Where only a bound is given, the exact number is not on record here.

HLA-A*1101, sequence (P04439 25-365 limits assumed, stated change not applied): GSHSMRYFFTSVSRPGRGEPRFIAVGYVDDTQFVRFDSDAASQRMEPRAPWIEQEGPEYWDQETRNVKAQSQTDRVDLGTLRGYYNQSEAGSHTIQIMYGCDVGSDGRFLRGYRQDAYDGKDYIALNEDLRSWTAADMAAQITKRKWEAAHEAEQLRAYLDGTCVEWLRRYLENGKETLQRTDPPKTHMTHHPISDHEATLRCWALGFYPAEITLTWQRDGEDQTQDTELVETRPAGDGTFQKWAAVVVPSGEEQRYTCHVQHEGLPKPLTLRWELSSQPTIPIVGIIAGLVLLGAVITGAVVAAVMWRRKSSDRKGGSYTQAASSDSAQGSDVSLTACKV

LVKSPNHVR [Her2/neu.852.R9]: the IC50 was 107 nM against HLA-A*3301; 7860 nM against HLA-A*0301; greater than 10000 nM against HLA-A*1101; 198 nM on HLA-A*3101; 50 nM at HLA-A*6801. For the same compound, the “No. of A3 Alleles Crossbound” value in experiment [1] was found to be 3.

Take `CC[C@H](C)[C@H](N)C(=O)N[C@H](C(=O)N[C@@H](Cc1c[nH]c2ccccc12)C(=O)N[C@@H](CC(C)C)C(=O)NCC(=O)N[C@@H](CC(C)C)C(=O)N[C@@H](CCCNC(=N)N)C(=O)N[C@@H](CO)C(=O)N[C@@H](CC(C)C)C(=O)N[C@@H](CCCNC(=N)N)C(=O)O)C(C)C` [Her2/neu.450.V2]: the half-inhibitory concentration (IC50) at HLA-A*3301 came to 193 nM; against HLA-A*0301, 234 nM; at HLA-A*3101, 11 nM; against HLA-A*6801 it was 7.3 nM. Further, the “No. of A3 Alleles Crossbound” value in experiment [1] is recorded as 4.

In the case of `CC[C@H](NC(=O)CNC(=O)CNC(=O)[C@H](C)NC(=O)[C@H](CC)NC(=O)[C@@H](NC(=O)[C@@H](N)[C@@H](C)O)C(C)C)C(=O)N[C@@H](C)C(=O)N[C@@H](CCCCN)C(=O)O` [Her2/neu.218.B3B7K9] (H-TV[Abu]AGG[Abu]AK-OH), the half-inhibitory concentration (IC50) against HLA-A*3301 was greater than 10000 nM; at HLA-A*0301 it was 24 nM; on HLA-A*1101, 29 nM; on HLA-A*3101, greater than 10000 nM; on HLA-A*6801, 7.3 nM. Moreover, the “No. of A3 Alleles Crossbound” value in experiment [1] is 3.

Turning to `CC[C@H](C)[C@H](N)C(=O)N[C@@H](CO)C(=O)N[C@@H](Cc1c[nH]c2ccccc12)C(=O)N[C@@H](CC(C)C)C(=O)NCC(=O)N[C@@H](CC(C)C)C(=O)N[C@@H](CCCNC(=N)N)C(=O)N[C@@H](CO)C(=O)N[C@@H](CC(C)C)C(=O)N[C@@H](CCCNC(=N)N)C(=O)O` [Her2/neu.450], the IC50 stood at 223 nM on HLA-A*3301; 268 nM at HLA-A*0301; 2220 nM on HLA-A*1101; 6.9 nM at HLA-A*3101; 73 nM against HLA-A*6801. In experiment [1], the “No. of A3 Alleles Crossbound” value turned out to be 4.

On to `CC[C@H](NC(=O)[C@H](CC(N)=O)NC(=O)[C@@H](NC(=O)[C@@H](N)CC)C(C)C)C(=O)N[C@@H](CO)C(=O)N[C@@H](CCC(N)=O)C(=O)N[C@@H](Cc1ccccc1)C(=O)N[C@@H](CC(C)C)C(=O)N[C@@H](CCCNC(=N)N)C(=O)O` [Her2/neu.528.B1B4] (H-[Abu]VN[Abu]SQFLR-OH), for which the IC50 was 58 nM at HLA-A*3301; 177 nM on HLA-A*0301; 80 nM on HLA-A*1101; 38 nM at HLA-A*3101; 10 nM against HLA-A*6801. Moreover, the “No. of A3 Alleles Crossbound” value in experiment [1] was determined as 5.

Regarding `CC(C)C[C@H](NC(=O)[C@H](CCC(N)=O)NC(=O)[C@H](CC(=O)O)NC(=O)[C@H](Cc1c[nH]c2ccccc12)NC(=O)[C@@H]1CCCN1C(=O)[C@@H](NC(=O)[C@@H](NC(=O)[C@@H](N)Cc1c[nH]cn1)[C@@H](C)O)C(C)C)C(=O)N[C@@H](Cc1ccccc1)C(=O)N[C@@H](CCCNC(=N)N)C(=O)O` [Her2/neu.478], the IC50 was 88 nM at HLA-A*3301; 3140 nM against HLA-A*0301; 83 nM against HLA-A*1101; 19 nM against HLA-A*3101; 4 nM against HLA-A*6801. Moreover, the “No. of A3 Alleles Crossbound” value in experiment [1] came to 4.

With `CC[C@H](NC(=O)CNC(=O)CNC(=O)[C@H](C)NC(=O)[C@H](CC)NC(=O)[C@@H](NC(=O)[C@@H](N)[C@@H](C)O)C(C)C)C(=O)N[C@@H](C)C(=O)N[C@@H](CCCNC(=N)N)C(=O)O` [Her2/neu.218.B3B7] (H-TV[Abu]AGG[Abu]AR-OH), the concentration for half-maximal inhibition (IC50) against HLA-A*3301 was determined as 242 nM; at HLA-A*0301 it was 314 nM; on HLA-A*1101, 111 nM; against HLA-A*3101 it was 247 nM; against HLA-A*6801, 8 nM. Further, the “No. of A3 Alleles Crossbound” value in experiment [1] is on record as 5.

With `CC(C)C[C@H](NC(=O)[C@@H]1CCCN1C(=O)[C@@H](NC(=O)[C@H](C)N)C(C)C)C(=O)N[C@@H](CC(=O)O)C(=O)N[C@@H](CO)C(=O)N[C@H](C(=O)N[C@@H](Cc1ccccc1)C(=O)N[C@@H](Cc1ccc(O)cc1)C(=O)N[C@@H](CCCNC(=N)N)C(=O)O)[C@@H](C)O` [Her2/neu.997.V2], the IC50 on HLA-A*3301 worked out at 2640 nM; against HLA-A*1101, 88 nM; against HLA-A*3101, 30000 nM; at HLA-A*6801 it was 73 nM. Also, the “No. of A3 Alleles Crossbound” value in experiment [1] was 2.
